# Data from patent US20260109707A1, “HETEROBIFUNCTIONAL COMPOUNDS AND METHODS OF TREATING DISEASE” (Halda Therapeutics OpCo. Inc., priority 2022, published 2026).
# Where two headings read alike, the source gives them in different places.
# Key:
# VCaP cells = experiment: Cellular growth inhibition assay for VCaP cells (CellTiter-Glo, 72 hours); format: cell-based, human
# Method in brief: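 Luminescent viability signal after 72 h of compound exposure gave GI50 values by four-parameter nonlinear regression. Compounds were added in 0.5% DMSO to cells plated 24 h earlier at 5000/well in DMEM containing 10% FBS.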
# T47D cells = experiment: Cellular growth inhibition assay for T47D cells (CellTiter-Glo, 72 hours); format: cell-based, human; details: 72 hours treatment
# Method in brief: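 Growth inhibition as GI50, fitted with four parameters to CellTiter-Glo luminescence after 72 h of compound exposure (0.5% DMSO). Cells were T47D, grown in insulin-supplemented (0.2 units/mL) DMEM with 10% FBS and treated one day post-seeding.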
# [1] = system: T-Rex 293 cell line SC cells lacking increased expression of progesterone receptor isoform B protein; experiment: Cellular growth inhibition assay, T-Rex 293 SC cells without doxycycline (CellTiter-Glo, 72 hours); format: cell-based; details: T-Rex 293 SC cells not exposed to doxycycline
# Protocol: (§1) The following types of cells were prepared for this experiment: (i) a T-Rex 293 cell line having increased expression of progesterone receptor isoform B protein due to exposure to doxycycline and (ii) a T-Rex 293 cell line lacking increased expression of progesterone receptor isoform B protein. Ability of the test compounds to inhibit proliferation of the foregoing cell types was evaluated according to the procedures set forth below.
# (§2) The doxycycline-inducible progesterone receptor isoform B protein expressing cell line was established using the following protocol: T-Rex 293 cells were purchased from Invitrogen (Cat #R71007) and transfected using Lipofectamine 2000 with the wild-type progesterone receptor B protein sequence cloned into the pcDNA4/TO vector. Transfected cells were selected using 400 μg/mL Zeocin (Invitrogen Cat #R25001). Following selection, single clones were raised and maintained in Dulbecco's Modified Eagle Medium (DMEM) supplemented with 10% w/w Tetracycline-free fetal bovine serum (FBS) and 250 μg/mL Zeocin. Clones were analyzed for expression of progesterone receptor isoform B protein in the presence and absence of 10 ng/mL doxycycline (Sigma Cat #D9891), and a single doxycycline-inducible clone (hereinafter “SC”) was selected for use in downstream assays.
# (§3) The SC cells were seeded on poly-D-lysine coated, black clear-bottom 384-well plates at 2500/well, in 25 μL Phenol Red Free Dulbecco's Modified Eagle Medium (DMEM) supplemented with 10% w/w charcoal-dextran treated fetal bovine serum (FBS) and 1% w/w pen-strep, with or without 10 ng/mL doxycycline. Pen-Strep is a commercially available mixture of penicillin G and streptomycin, which is used in mammalian cell culture media to prevent bacterial contamination. Phenol Red Free Dulbecco's Modified Eagle Medium (DMEM) supplemented with 10% w/w charcoal-dextran treated fetal bovine serum (FBS) and 1% w/w pen-strep, with or without 10 ng/mL doxycycline is herein referred to as Treatment Medium. Following seeding of cells in the plates, the plates were spun at 300×g for 30 seconds, then equilibrated to room temperature for 30 minutes, and then deposited in a humidified tissue culture incubator maintained at 37° C. with 5% CO2.
# (§4) At 24 hours after seeding of the cells, dilutions of test compound were prepared in DMSO and dissolved in Treatment Medium, to achieve a final DMSO concentration of 0.5% w/w, thereby providing the Test Compound Solution. A 25 μL aliquot of the Test Compound Solution was added to cells in the well plates. An equal volume of a solution containing DMSO and Treatment Medium was used as a negative control. Following treatment of cells with Test Compound Solution or said equal volume of a solution containing DMSO and Treatment Medium, the plates were spun at 300×g for 30 seconds, and then left in an incubator for 72 hours.
# (§5) At the end of the treatment duration, cell viability was quantified with CellTiter-Glo 2.0 reagent (Promega Cat #G9243). For this purpose, plates were equilibrated to room temperature for 30 minutes, and then 25 μL of CellTiter-Glo 2.0 reagent was added to cells in the plate wells. Plates were then agitated on a shaker for two minutes at 500 rpm and subsequently incubated at room temperature for 10 minutes. Following incubation, the plates were spun at 3000×g for 30 seconds, then sealed with an optical adhesive cover, and luminescence readings were measured with an EnVision Plate Reader (Perkin Elmer).
# (§6) Data was normalized using zero luminescence for baseline. A four-parameter non-linear regression curve fit was applied to dose-response data in GraphPad Prism data analysis software to determine the half-maximal growth inhibitory concentration (GI50) for each test compound.
# [2] = system: T-Rex 293 cell line SC3 cells lacking increased expression of androgen receptor protein; experiment: Cellular growth inhibition assay, T-Rex 293 SC3 cells without doxycycline (CellTiter-Glo, 72 hours); format: cell-based; details: T-Rex 293 cell line SC3 cells not exposed to doxycycline (lacking increased androgen receptor expression)
# Method in brief: (§7)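 Growth inhibition is measured in an inducible AR-expressing T-Rex 293 clone, SC3, cultured with or without 10 ng/mL doxycycline in hormone-depleted medium. Test compounds are applied for 72 hours. GI50 values derive from CellTiter-Glo 2.0 signal fitted by four-parameter regression.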
# [3] = system: T-Rex 293 cell line SC3 cells having increased expression of androgen receptor protein due to exposure to doxycycline; experiment: Cellular growth inhibition assay, T-Rex 293 SC3 cells with doxycycline (CellTiter-Glo, 72 hours); format: cell-based; details: T-Rex 293 SC3 cells with increased androgen receptor expression due to doxycycline (10 ng/mL)
# Method in brief: as §7
# [4] = Cellular growth inhibition assay, T-Rex 293 SC cells with doxycycline (CellTiter-Glo, 72 hours); format: cell-based; details: T-Rex 293 SC cells with doxycycline (increased progesterone receptor isoform B)
# Protocol: as §1, §2, §3, §4, §5, §6
Compound,"GI50 (VCaP cells; Homo sapiens, VCaP, 72 h) [nM]","GI50 (T47D cells; Homo sapiens, T47D, 72 h) [nM]",GI50 [1] [nM],GI50 ([2]; 72 h) [nM],GI50 ([3]; 72 h) [nM],GI50 [4] [nM],GI50 (VCaP cells) [nM],GI50 (T47D cells) [nM],GI50 [2] [nM],GI50 [3] [nM]
Cc1sc2c(c1C)C(c1ccc(CCC3CC4(CCCN(c5ccc(C(=O)N[C@H]6CC[C@H](Oc7ccc(C#N)c(Cl)c7)CC6)nn5)C4)C3)cc1)=N[C@@H](Cc1ncco1)c1nnc(C)n1-2 (stereo partly shown) [I-208],< 500,< 500,< 500,< 500,< 500,< 500,–,–,–,–
Cc1sc2c(c1C)C(c1ccc(CCCN3[C@@H](C)CN(c4ccc(C(=O)N[C@H]5CC[C@H](Oc6ccc(C#N)c(Cl)c6)CC5)nn4)C[C@@H]3C)cc1)=N[C@@H](Cc1ncco1)c1nnc(C)n1-2 [I-130],< 500,< 500,< 500,< 500,< 500,< 500,–,–,–,–
Cc1sc2c(c1C)C(c1ccc(C3CC3CC3CCCN(c4ccc(C(=O)N[C@H]5CC[C@H](Oc6ccc(C#N)c(Cl)c6)CC5)nn4)C3)cc1)=N[C@@H](Cc1ncco1)c1nnc(C)n1-2 (stereo partly shown) [I-205],< 500,< 500,< 500,< 500,< 500,< 500,–,–,–,–
CCNC(=O)C[C@@H]1N=C(c2ccc(OCCC3CCN(c4ccc(C(=O)N[C@H]5CC[C@H](Oc6ccc(C#N)c(Cl)c6)CC5)nn4)CC3)cc2)c2c(sc(C)c2C)-n2c(C)nnc21 [I-13],< 500,< 500,< 500,< 500,< 500,< 500,–,–,–,–
Cc1sc2c(c1C)C(c1ccc(C3C[C@H]3CC3CCCN(c4ccc(C(=O)N[C@H]5CC[C@H](Oc6ccc(C#N)c(Cl)c6)CC5)nn4)C3)cc1)=N[C@@H](Cc1ncco1)c1nnc(C)n1-2 (stereo partly shown) [I-204],< 500,< 500,< 500,< 500,< 500,< 500,–,–,–,–
Cc1sc2c(c1C)C(c1ccc([C@H]3C[C@H](C4CCN(c5ccc(C(=O)N[C@H]6CC[C@H](Oc7ccc(C#N)c(Cl)c7)CC6)nn5)CC4)C3)cc1)=N[C@@H](Cc1ncco1)c1nnc(C)n1-2 [I-373],< 500,< 500,–,> 3000,< 500,–,–,–,–,–
Cc1sc2c(c1C)C(c1ccc(CCC3CC4(CCCC(c5ccc(C(=O)N[C@H]6CC[C@H](Oc7ccc(C#N)c(Cl)c7)CC6)nn5)C4)C3)nc1)=N[C@@H](Cc1ncco1)c1nnc(C)n1-2 (stereo partly shown) [I-439],–,–,–,–,–,–,500 to 1500,500 to 1500,< 500,< 500
Cc1sc2c(c1C)C(c1ccc(CNC(=O)Cc3ccc(C(=O)N[C@H]4CC[C@H](Oc5ccc(C#N)c(Cl)c5)CC4)nn3)cc1)=N[C@@H](Cc1ncco1)c1nnc(C)n1-2 [I-300],< 500,500 to 1500,–,> 3000,500 to 1500,–,–,–,–,–
Cc1sc2c(c1C)C(c1ccc(C(=O)N3CCC(N(C)c4ccc(C(=O)N[C@H]5CC[C@H](Oc6ccc(C#N)c(Cl)c6)CC5)nn4)CC3)cc1)=N[C@@H](Cc1ncco1)c1nnc(C)n1-2 [I-306],> 3000,1500 to 3000,–,> 3000,> 3000,–,–,–,–,–
Cc1sc2c(c1C)C(c1ccc(O[C@H]3C[C@@]4(CCCN(c5ccc(C(=O)N[C@H]6CC[C@H](Oc7ccc(C#N)c(Cl)c7)CC6)nn5)C4)C3)nc1)=N[C@@H](Cc1ncco1)c1nnc(C)n1-2 [I-220],500 to 1500,500 to 1500,–,> 3000,< 500,–,–,–,–,–
Cc1sc2c(c1C)C(c1ccc(CC(=O)N3CCN(c4ccc(C(=O)N[C@H]5CC[C@H](Oc6ccc(C#N)c(Cl)c6)CC5)nn4)CC3)cc1)=N[C@@H](Cc1ncco1)c1nnc(C)n1-2 [I-319],< 500,< 500,–,> 3000,< 500,–,–,–,–,–
Cc1sc2c(c1C)C(c1ccc(C[C@H]3CC[C@@]4(CCCN(c5ccc(C(=O)N[C@H]6CC[C@H](Oc7ccc(C#N)c(Cl)c7)CC6)nn5)C4)C3)cc1)=N[C@@H](Cc1ncco1)c1nnc(C)n1-2 [I-123],1500 to 3000,1500 to 3000,–,> 3000,1500 to 3000,–,–,–,–,–
Cc1sc2c(c1C)C(c1ccc(C#C[C@H]3C[C@]4(CCCN(c5ccc(C(=O)N[C@H]6CC[C@H](Oc7ccc(C#N)c(Cl)c7)CC6)nn5)C4)C3)cc1)=N[C@@H](Cc1ncco1)c1nnc(C)n1-2 [I-234],< 500,< 500,–,< 500,< 500,–,–,–,–,–
Cc1sc2c(c1C)C(c1ccc(OC[C@H]3C[C@]4(CCCN(c5ccc(C(=O)N[C@H]6CC[C@H](Oc7ccc(C#N)c(Cl)c7)CC6)nn5)C4)C3)nc1)=N[C@@H](Cc1ncco1)c1nnc(C)n1-2 [I-262],< 500,< 500,–,> 3000,< 500,–,–,–,–,–
Cc1sc2c(c1C)C(c1ccc(OC3CC4(CCN(c5ccc(C(=O)N[C@H]6CC[C@H](Oc7ccc(C#N)c(Cl)c7)CC6)nn5)CC4)C3)nc1)=N[C@@H](Cc1ncco1)c1nnc(C)n1-2 [I-223],< 500,500 to 1500,–,500 to 1500,< 500,–,–,–,–,–
Cc1sc2c(c1C)C(c1ccc(CC[C@H]3CCCN(c4ccc(C(=O)N[C@H]5CC[C@H](Oc6ccc(C#N)c(Cl)c6)CC5)nn4)C3)cc1)=N[C@@H](Cc1ncco1)c1nnc(C)n1-2 [I-254],< 500,< 500,–,< 500,< 500,–,–,–,–,–
Cc1sc2c(c1C)C(c1ccc(C#CC3CC4(C3)CN(c3ccc(C(=O)N[C@H]5CC[C@H](Oc6ccc(C#N)c(Cl)c6)CC5)nn3)C4)cc1)=NCc1nnc(C)n1-2 [I-421],< 500,500 to 1500,–,< 500,< 500,–,–,–,–,–
Cc1sc2c(c1C)C(c1ccc(OC3CC4(CCN(c5ccc(C(=O)N[C@H]6CC[C@H](Oc7ccc(C#N)c(Cl)c7)CC6)nn5)CC4)C3)cc1)=NC1(CC1)c1nnc(C)n1-2 [I-417],> 3000,500 to 1500,–,> 3000,< 500,–,–,–,–,–
Cc1sc2c(c1C)C(c1ccc(CC[C@H]3CC[C@@]4(CCCN(c5ccc(C(=O)N[C@H]6CC[C@H](Oc7ccc(C#N)c(Cl)c7)CC6)nn5)C4)C3)cc1)=N[C@@H](Cc1ncco1)c1nnc(C)n1-2 [I-213],> 3000,> 3000,–,> 3000,> 3000,–,–,–,–,–
Cc1sc2c(c1C)C(c1ccc(N(C)CC(=O)N3CCC(c4ccc(C(=O)N[C@H]5CC[C@H](Oc6ccc(C#N)c(Cl)c6)CC5)nn4)CC3)cc1)=N[C@H](Cc1ncco1)c1nnc(C)n1-2 [I-313],< 500,500 to 1500,–,> 3000,< 500,–,–,–,–,–
Cc1sc2c(c1C)C(c1ccc(N(C)CC(=O)NCc3ccc(C(=O)N[C@H]4CC[C@H](Oc5ccc(C#N)c(Cl)c5)CC4)nn3)cc1)=N[C@H](Cc1ncco1)c1nnc(C)n1-2 [I-333],< 500,500 to 1500,–,> 3000,> 3000,–,–,–,–,–
